How the values were obtained:
Male Sprague Dawley rats = experiment: Short-term social recognition memory in the rat; format: in vivo; settings: 30 mg/kg po at 24, 18 and 1 hour before first juvenile exposure, vs vehicle control rats (FIG. 4)
Procedure: Social memory and social cognition are impaired in disorders such as Alzheimer's disease and schizophrenia. One of the more commonly used preclinical models of social recognition memory is short-term social recognition in the rat, a model of short-term memory based on the recognition of a juvenile rat by an adult rat. […] The juvenile rat is then removed and reintroduced 120 min later, and interactive behavior of the adult rat is again monitored. If memory has been lost over the interval between trials 1 and 2, the extent of interaction is equal (expressed as a ratio of investigation time of T1/T2) and the ratio will be close to 1. However, if the adult remembers the juvenile, the investigation ratio declines. To test for non-specific effects, a novel juvenile is introduced at 120 minutes instead of the familiar juvenile. […]
Rats were pre-dosed po at 24, 18 and 1 hour before first juvenile rat exposure with vehicle, or Compound CC (30 mg/kg). […] The time the adult spent exploring (sniffing, grooming, close following) the juvenile during this test session was recorded, and defined as the first investigation duration. […] Data were analyzed using a one-way analysis of variance. If there was a significant effect, subsequent post hoc significance was determined using Dunnett's multiple comparison testing (p<0.05 was regarded as significant).

Fisher rats = experiment: Rat wake EEG power spectrum and REM sleep parameters; format: in vivo; settings: 30 mg/kg, 3 times at 24, 26, and 0.1 hours before measurement
Procedure: EEG of Fisher rats (n=8/group) with chronically implanted supracortical EEG-electrodes were analyzed for an 8 h period. Intraindividual drug-induced changes of power spectra were analyzed. For REM sleep the number of REM episodes, latency to first REM, and total REM time was analyzed.

[1] = system: acetylcholine release (mPFC, hippocampus); experiment: Microdialysis, cortical/hippocampal acetylcholine release; format: in vivo, rat; settings: single administration 30 mg/kg, p.o.
Procedure: (§1) Microdialysis studies (resting or challenging conditions) in freely moving, male Sprague Dawley rats (Janvier, 295-315 g, n=5-8/treatment group) were performed using stereotactically instrumented microdialysis probes (CMA/12-14-2): mPFC, hippocampus. Aliquots of the same microdialysate fractions (6 before, and 9-12 after compound administration) were analyzed either for acetylcholine or for serotonin by HPLC and electrochemical detection.

[2] = system: serotonin (5-HT) levels (medial prefrontal cortex, hippocampus); experiment: Microdialysis, cortical/hippocampal serotonin release; format: in vivo, rat; settings: single administration 30 mg/kg, p.o.; medial prefrontal cortex and hippocampus (FIGS. 7a, 7b)
Procedure: as §1
This is a feature shared by marketed anti-depressive drugs and might indicate the potential use for 11β-HSD1 inhibitors as antidepressants/anxiolytic drugs. These findings remain to be confirmed by (i) investigating 11β-HSD1 inhibitors from different chemotype(s) in selected microdialysis studies and/or (ii) in animal models of depression/anxiety.

Male CD-1 mice [3] = experiment: 24-hour inhibitory avoidance task in mice, drug-in-diet dosing; format: in vivo; settings: drug-in-diet 10 and 100 mg/kg/day in Western diet, tested from day 17, vs vehicle control mice (FIG. 1)
Procedure: The 24-hour inhibitory avoidance task in mice is a measure of one-trial learning and memory consolidation in response to a discrete aversive event (foot-shock). Mice are first placed in an illuminated compartment of a two-compartment apparatus. Mice will naturally step through into an adjoining dark compartment, which they prefer. When the mice enter the dark they receive a mild foot-shock. To assess memory, mice are tested 24 hours later and the length of time the animal refrains from entering the dark compartment is recorded (higher latencies indicate improved memory for the aversive event).
(§2) Male CD-1 mice were obtained from Charles River, Wilmington, Mass. Mice were group-housed 10 per cage. The body weight upon arrival was 20-25 g. Food and water were available ad libitum except during experiments. […]
On the first day of testing (17 days after drug-in-diet was presented) mice were removed from the colony room in their home cage, brought to the testing room, and left undisturbed for 2 hours prior to testing initiation. […] The latency to enter the dark chamber was recorded and was the dependent variable measured for assessing memory retention (latency is defined as entry of the whole mouse; all 4 paws on the grids in the dark side, plus the tail in the chamber for 5 sec; 180 sec is maximum latency). Data were analyzed using Mann Whitney U comparisons. […]

phosphorylated CREB = experiment: Phosphorylated CREB immunohistochemistry in brain after food-in-diet dosing; format: in vivo, mice; settings: 18 days food-in-diet, 10 and 100 mg/kg/day (FIG. 2)
Procedure: In vivo signaling studies were conducted to examine the biochemical pathways that may be mechanistically involved in the cognitive efficacy associated with Compound AA. An important signaling process that serves as a biochemical correlate of synaptic plasticity underlying learning and memory is the phosphorylation of CREB (c-AMP-response element binding protein), a transcription factor critical to long-term memory.
as §2
Following perfusion, brains were removed and postfixed in 20% sucrose-PBS (phosphate buffered saline) overnight and subsequently cut on a cryostat (40 μm coronal sections) and collected as free-floating sections in PBS. […] Immuno-reactivity (IR) was quantified using an image analysis system (Leica, Quantimet 500) that determined number and/or area of peroxidase substrate-positive stained neurons from digitized photomicrographs according to a pixel gray level empirically determined prior to analysis. Overall statistical significance was determined using a one-way ANOVA, with Dunnett's post hoc analyses used to determine significance (p<0.05 was considered significant).

Male CD-1 mice [4] = experiment: 24-hour inhibitory avoidance in mice, subchronic (3 administration) dosing; format: in vivo; settings: 30 mg/kg PO, BID the day before training and one hour before training, vs vehicle control mice (FIG. 3)
Procedure: Male CD-1 mice were obtained from Charles River, Wilmington, Mass. Mice were group-housed 10 per cage. The body weight upon arrival was 20-25 g. Food and water were available ad libitum except during experiments. Animals were acclimated to the animal facilities for a period of at least one week prior to commencement of experiments. Animals were tested in the light phase of a 12-hour light:12-hour dark schedule (lights on 0600 hours).
Compound AA and Compound BB were synthesized at Abbott Laboratories. […] Compound AA was administered in a cloudy, fine suspension, while Compound BB was administered in a solution.
On training day, mice were injected with Compound AA, Compound BB or vehicle one-hour PO before training. One hour following injection (start of training) mice were subjected to a training session in which they were placed in a lighted compartment of a two-compartment chamber (Gemini apparatus, San Diego Instruments, San Diego, Calif.) with a manually operated gate separating the compartments. […] Twenty-four hours later mice were again tested in the same apparatus, except without shock, and the transfer latency from the lighted to the dark compartment recorded and used as an index of memory for the punished response 24 hours earlier. […] Data were analyzed using Mann Whitney U comparisons. […]

HSD-1 = experiment: Monkey ex vivo HSD1 activity (cortisone to cortisol in harvested tissue); set-up: species or system Cynomolgus Monkeys
Procedure: Harvested tissues (approximately 150 mg) were minced into small, 2 mm pieces in the presence of 5× volume of incubation buffer. Cortisone at final concentrations of 0, 3, 10 or 30 μM was added to each well. Cell culture plates with tissues were incubated at 37° C. for three hours. Two-hundred μL of tissue culture supernatant was then removed and spun at 1000 rpm in an Eppindorf tube, and then 100 μL of resulting supernatant was aliquotted into two tubes for LCMS analysis of cortisol.

Row | SMILES | short-term memory retention (social recognition) (Male Sprague Dawley rats) | reduction of total sleep time (Fisher rats; 8 h period) | reduction of number of REM sleep episodes (Fisher rats; 8 h period (FIG. 5a)) | reduction of REM time (Fisher rats; 8 h period (FIG. 5b)) | increase of latency to first REM (Fisher rats; 8 h period (FIG. 5c)) | ACh release under resting conditions ([1]; acute) | ACh release under challenging conditions (home cage to novel cage and back) ([1]; cortex and hippocampus (FIGS. 6a-6c)) | microdialysate serotonin (5-HT) levels [2] | memory retention (Mean Transfer Latency), 24-hour inhibitory avoidance (Male CD-1 mice [3]) | phosphorylated CREB immuno-reactivity (phosphorylated CREB) | memory retention (transfer latency), 24-hour inhibitory avoidance (Male CD-1 mice [4]) | ex vivo inhibition of monkey brain, fat and liver HSD1 (HSD-1; 2.5 and 16 hours following a single oral 10 mg/kg dose) | HSD-1 ex vivo activity, Mean % Veh Control (HSD-1; Cerebral Cortex, 16 hours after single 10 mg/kg oral dose) | HSD-1 ex vivo activity, Mean % Veh Control (HSD-1; Hippocampus, 16 hours after single 10 mg/kg oral dose) | HSD-1 ex vivo activity, Mean % Veh Control (HSD-1; Liver, 2.5 hours after single 10 mg/kg oral dose) | HSD-1 ex vivo activity, Mean % Veh Control (HSD-1; Liver, 16 hours after single 10 mg/kg oral dose) | HSD-1 ex vivo activity, Mean % Veh Control (HSD-1; Mesenteric Fat, 2.5 hours after single 10 mg/kg oral dose) | HSD-1 ex vivo activity, Mean % Veh Control (HSD-1; Mesenteric Fat, 16 hours after single 10 mg/kg oral dose)
1 | O=C(CN1CCN(c2ccc(C(F)(F)F)cn2)CC1)NC1C2CC3CC1CC(O)(C3)C2 (stereo not drawn) [Compound CC, N-[(E)-5-Hydroxy-2-adamantyl]-2-{4-[5-(trifluoromethyl)pyridin-2-yl]piperazin-1-yl}acetamide] | significant improvement in short-term memory retention | 10% | 16% | 23% | 62% | did not change ACh release | did not induce any further stimulation of ACh release | long-lasting increase of serotonin (5-HT) levels |  |  |  |  |  |  |  |  |  | 
2 | CC(C)(Oc1ccc(F)cc1Cl)C(=O)NC1C2CC3CC1CC(S(C)(=O)=O)(C3)C2 (stereo not drawn) [S, 2-(2-Chloro-4-fluorophenoxy)-2-methyl-N-[(E)-5-(methylsulfonyl)-2-adamantyl]propanamide] |  |  |  |  |  |  |  |  | significant improvement in memory retention | increase in phosphorylated CREB | significant improvement in memory retention | potent ex vivo inhibition | 30% | 42% | 38% | 9% | 90% | 50%

From patent US20090192198A1, “INHIBITORS OF THE 11-BETA-HYDROXYSTEROID DEHYDROGENASE TYPE 1 ENZYME” (Abbott Laboratories, priority 2005, published 2009)
